# Data from US20100152434A1, “Protein Kinase-binding Nucleosides and Associated Methods” (priority 2007, published 2010).
# Where two headings read alike, the source gives them in different places.
# Key:
# HCT-116 [1] = assay: cells; conditions: Homo sapiens
# HCC-2998 [2] = conditions: HCC-2998
# SNB-19 = assay: cells; conditions: Homo sapiens
# SF-295 = assay: cells; conditions: Homo sapiens
# OVCAR-3 = assay: cells; conditions: Homo sapiens
# U251 [3] = system: U251
# CCRF-CEM = assay: cells; conditions: Homo sapiens
# U251 [4] = assay: cells; conditions: Homo sapiens
# BT-549 = assay: cells; conditions: Homo sapiens
# HCT-15 = assay: cells; conditions: Homo sapiens
# MALME-3M = assay: cells; conditions: Homo sapiens
# HCT-116 [5] = system: HCT-116
# EKVX = assay: cells; conditions: Homo sapiens
# SNB-75 [6] = system: SNB-75
# NCI/ADR-RES = assay: cells; conditions: Homo sapiens
# SNB-75 [7] = assay: cells; conditions: Homo sapiens
# HOP-62 = assay: cells; conditions: Homo sapiens
# HT29 [8] = system: HT29
# HT29 [9] = assay: cells; conditions: Homo sapiens
# HCC-2998 [10] = assay: cells; conditions: Homo sapiens
structure (smiles),measurement,setting,value
"CNC(=O)NC[C@H]1O[C@@H](n2cnc3c(NC(=O)Nc4ccccc4)ncnc32)[C@H](O[Si](C)(C)C(C)(C)C)[C@@H]1CC(=O)N(C)OC [Compound 13, 2′-O-(tert-Butyldimethylsilyl)-3′,5′-dideoxy-3′-[(N-methoxy-N-methylcarboxamido)methyl]-5′-[(N-methylcarbamoyl)amino]-N^6-(N-phenylcarbamoyl)adenosine]",TGI,SK-MEL-5,>1.00E−4 Molar
same,Percent Growth,SK-MEL-5; Log10 Concentration −4.0,11%
same,Percent Growth,SK-MEL-5; Log10 Concentration −5.0,38%
same,Percent Growth,SK-MEL-5; Log10 Concentration −6.0,89%
same,Percent Growth,SK-MEL-5; Log10 Concentration −7.0,98%
same,Percent Growth,SK-MEL-5; Log10 Concentration −8.0,104%
same,GI50,HCT-116 [1]; HCT-116,4.2 µM
same,CC50,"HCT-116 [1]; HCT-116, read-out: LC50",> 100 µM
same,TGI,HCC-2998 [2],>1.00E−4 Molar
same,Percent Growth,HCC-2998 [2]; Log10 Concentration −4.0,33%
same,Percent Growth,HCC-2998 [2]; Log10 Concentration −5.0,66%
same,Percent Growth,HCC-2998 [2]; Log10 Concentration −6.0,100%
same,Percent Growth,HCC-2998 [2]; Log10 Concentration −7.0,97%
same,Percent Growth,HCC-2998 [2]; Log10 Concentration −8.0,102%
same,GI50,SNB-19; SNB-19,> 100 µM
same,CC50,"SNB-19; SNB-19, read-out: LC50",> 100 µM
same,GI50,SF-295; SF-295,9.09 µM
same,CC50,"SF-295; SF-295, read-out: LC50",> 100 µM
same,GI50,OVCAR-3; OVCAR-3,7.11 µM
same,CC50,"OVCAR-3; OVCAR-3, read-out: LC50",> 100 µM
same,TGI,U251 [3],>1.00E−4 Molar
same,Percent Growth,U251 [3]; Log10 Concentration −4.0,25%
same,Percent Growth,U251 [3]; Log10 Concentration −5.0,37%
same,Percent Growth,U251 [3]; Log10 Concentration −6.0,90%
same,Percent Growth,U251 [3]; Log10 Concentration −7.0,101%
same,Percent Growth,U251 [3]; Log10 Concentration −8.0,97%
same,GI50,CCRF-CEM,6.37 µM
same,CC50,CCRF-CEM; read-out: LC50,> 100 µM
same,GI50,U251 [4]; U-251,5.66 µM
same,CC50,"U251 [4]; U-251, read-out: LC50",> 100 µM
same,GI50,BT-549; BT-549,29 µM
same,CC50,"BT-549; BT-549, read-out: LC50",> 100 µM
same,GI50,HCT-15; HCT-15,6.47 µM
same,CC50,"HCT-15; HCT-15, read-out: LC50",> 100 µM
same,GI50,MALME-3M,11.4 µM
same,CC50,MALME-3M; read-out: LC50,> 100 µM
same,TGI,HCT-116 [5],>1.00E−4 Molar
same,Percent Growth,HCT-116 [5]; Log10 Concentration −4.0,6%
same,Percent Growth,HCT-116 [5]; Log10 Concentration −5.0,26%
same,Percent Growth,HCT-116 [5]; Log10 Concentration −6.0,89%
same,Percent Growth,HCT-116 [5]; Log10 Concentration −7.0,90%
same,Percent Growth,HCT-116 [5]; Log10 Concentration −8.0,93%
same,GI50,EKVX,26.4 µM
same,CC50,EKVX; read-out: LC50,> 100 µM
same,TGI,UO-31,>1.00E−4 Molar
same,Percent Growth,UO-31; Log10 Concentration −4.0,32%
same,Percent Growth,UO-31; Log10 Concentration −5.0,46%
same,Percent Growth,UO-31; Log10 Concentration −6.0,82%
same,Percent Growth,UO-31; Log10 Concentration −7.0,89%
same,Percent Growth,UO-31; Log10 Concentration −8.0,89%
same,TGI,SNB-75 [6],>1.00E−4 Molar
same,Percent Growth,SNB-75 [6]; Log10 Concentration −4.0,12%
same,Percent Growth,SNB-75 [6]; Log10 Concentration −5.0,54%
same,Percent Growth,SNB-75 [6]; Log10 Concentration −6.0,84%
same,Percent Growth,SNB-75 [6]; Log10 Concentration −7.0,95%
same,Percent Growth,SNB-75 [6]; Log10 Concentration −8.0,94%
same,GI50,NCI/ADR-RES,> 100 µM
same,CC50,NCI/ADR-RES; read-out: LC50,> 100 µM
same,TGI,UACC-62,>1.00E−4 Molar
same,Percent Growth,UACC-62; Log10 Concentration −4.0,39%
same,Percent Growth,UACC-62; Log10 Concentration −5.0,69%
same,Percent Growth,UACC-62; Log10 Concentration −6.0,96%
same,Percent Growth,UACC-62; Log10 Concentration −7.0,107%
same,Percent Growth,UACC-62; Log10 Concentration −8.0,102%
same,TGI,T-47D,>1.00E−4 Molar
same,Percent Growth,T-47D; Log10 Concentration −4.0,17%
same,Percent Growth,T-47D; Log10 Concentration −5.0,56%
same,Percent Growth,T-47D; Log10 Concentration −6.0,84%
same,Percent Growth,T-47D; Log10 Concentration −7.0,89%
same,Percent Growth,T-47D; Log10 Concentration −8.0,90%
same,GI50,SNB-75 [7]; SNB-75,12.7 µM
same,CC50,"SNB-75 [7]; SNB-75, read-out: LC50",> 100 µM
same,GI50,HOP-62; HOP-62,24.9 µM
same,CC50,"HOP-62; HOP-62, read-out: LC50",> 100 µM
same,TGI,HT29 [8],>1.00E−4 Molar
same,Percent Growth,HT29 [8]; Log10 Concentration −4.0,17%
same,Percent Growth,HT29 [8]; Log10 Concentration −5.0,32%
same,Percent Growth,HT29 [8]; Log10 Concentration −6.0,100%
same,Percent Growth,HT29 [8]; Log10 Concentration −7.0,107%
same,Percent Growth,HT29 [8]; Log10 Concentration −8.0,104%
same,TGI,A498,4.03E−5 Molar
same,Percent Growth,A498; Log10 Concentration −4.0,−16%
same,Percent Growth,A498; Log10 Concentration −5.0,24%
same,Percent Growth,A498; Log10 Concentration −6.0,87%
same,Percent Growth,A498; Log10 Concentration −7.0,96%
same,Percent Growth,A498; Log10 Concentration −8.0,90%
same,TGI,M14,>1.00E−4 Molar
same,Percent Growth,M14; Log10 Concentration −4.0,18%
same,Percent Growth,M14; Log10 Concentration −5.0,57%
same,Percent Growth,M14; Log10 Concentration −6.0,91%
same,Percent Growth,M14; Log10 Concentration −7.0,98%
same,Percent Growth,M14; Log10 Concentration −8.0,98%
same,GI50,HT29 [9]; HT-29,5.37 µM
same,CC50,"HT29 [9]; HT-29, read-out: LC50",> 100 µM
same,GI50,HCC-2998 [10]; HCC 2998,30.6 µM
same,CC50,"HCC-2998 [10]; HCC 2998, read-out: LC50",> 100 µM
same,TGI,COLO 205,>1.00E−4 Molar
same,Percent Growth,COLO 205; Log10 Concentration −4.0,1%
same,Percent Growth,COLO 205; Log10 Concentration −5.0,55%
same,Percent Growth,COLO 205; Log10 Concentration −6.0,90%
same,Percent Growth,COLO 205; Log10 Concentration −7.0,93%
same,Percent Growth,COLO 205; Log10 Concentration −8.0,97%
